# Experimental data taken from ChEMBL document CHEMBL5038651, “Design, Synthesis, and Biological Evaluation of 2-((4-Bisarylmethyl-piperazin-1-yl)methyl)benzonitrile Derivatives as HCV Entry Inhibitors” (J Med Chem, 2022).
# Active and inactive are the calls of the source. No cut-off for these calls is given here.
# Key:
# Hepatitis C virus [1] = experiment: Antiviral activity against HCV infected in human Huh7.5 cells incubated for 72 hrs by in-cell western assay; assay type: functional, organism-based, Hepacivirus hominis; conditions: Huh7.5, 72 h
# [2] = Selectivity index, ratio of CC50 for cytotoxicity against human Huh7.5.1 cells to EC50 for antiviral activity against HCV infected in human Huh7.5.1 cells; assay type: toxicity, cell-based
# [3] = (§1) Cytotoxicity against human Huh7.5 cells assessed as reduction in cell viability incubated for 96 hrs by MTT assay; assay type: toxicity, cell-based, Huh-7.5; conditions: Huh7.5 cells
# [4] = Cytotoxicity against human Huh7.5 cells carrying HCV subgenomic replicons assessed as reduction in cell viability incubated for 96 hrs by MTT assay; assay type: toxicity, cell-based, Huh-7.5
# Hepatitis C virus [5] = experiment: Antiviral activity against HCVcc infected in human Huh7.5 cells assessed as inhibition of viral replication; assay type: functional, organism-based, Hepacivirus hominis
# Hepatitis C virus [6] = experiment: Antiviral activity against HCV infected in human Huh7.5 cells assessed as reduction in HCV core protein expression at 6.4 nM incubated for 72 hrs by in-cell western assay; assay type: functional, organism-based; conditions: Hepacivirus hominis
# Hepatitis C virus [7] = experiment: Antiviral activity against HCV infected in human Huh7.5 cells carrying HCV subgenomic replicons assessed as inhibition of viral replication; assay type: functional, organism-based, Hepacivirus hominis
# [8] = Cytotoxicity against human Huh7.5 cells infected with HCVcc assessed as reduction in cell viability incubated for 96 hrs by MTT assay; assay type: toxicity, cell-based, Huh-7.5
# Hepacivirus hominis = experiment: Binding affinity to HCV E1 protein at 12.5 to 200 uM by SPR analysis; conditions: dose 12.5-200 µM
# [9] = Selectivity index, ratio of CC50 for cytotoxicity against human Huh7.5 cells infected with HCVcc to EC50 for antiviral activity against HCVcc infected in human Huh7.5 cells; assay type: toxicity, cell-based; conditions: read-out: Ratio CC50/EC50
# [10] = target: Histamine H1 receptor (Homo sapiens) (UniProt P35367); experiment: Antagonist activity against H1 receptor (unknown origin) expressed in HEK cells at 1 uM relative to control; assay type: functional, cell-based
# Huh-7.5 = experiment: as §1; assay type: toxicity, cell-based; conditions: huh-7.5, 96 h, 96 h
# Hepatitis C virus [11] = experiment: Antiviral activity against HCV infected in human Huh7.5 cells assessed as reduction in viral RNA level measured after 72 hrs by RT-qPCR analysis; assay type: functional, organism-based; conditions: Hepacivirus hominis
# Hepatitis C virus [12] = experiment: Antiviral activity against HCV infected in human Huh7.5 cells assessed as reduction in HCV core protein expression pre-infected with virus for 2 hrs followed by compound addition and measured after 72 hrs by Western blotting analysis; assay type: functional, organism-based; conditions: Hepacivirus hominis
# Hepatitis C virus [13] = experiment: Antiviral activity against HCV infected in human Huh7.5 cells assessed as reduction in viral RNA level preincubated for 2 hrs prior to viral infection and measured after 72 hrs by RT-qPCR analysis; assay type: functional, organism-based; conditions: Hepacivirus hominis, time 74.0 hrs
# Hepatitis C virus [14] = experiment: Antiviral activity against HCV infected in human Huh7.5 cells assessed as reduction in viral RNA level pre-infected with virus for 2 hrs followed by compound addition and measured after 72 hrs by RT-qPCR analysis; assay type: functional, organism-based; conditions: Hepacivirus hominis
# Hepatitis C virus [15] = experiment: Antiviral activity against HCV infected in human Huh7.5 cells assessed as reduction in HCV core protein expression measured after 72 hrs by Western blotting analysis; assay type: functional, organism-based; conditions: Hepacivirus hominis
# Hepatitis C virus [16] = experiment: Antiviral activity against HCV infected in human Huh7.5 cells assessed as reduction in HCV core protein expression preincubated for 2 hrs followed by viral infection and measured after 72 hrs by Western blotting analysis; assay type: functional, organism-based; conditions: Hepacivirus hominis, time 74.0 hrs
# Hepatitis C virus [17] = experiment: Antiviral activity against HCV infected in human Huh7.5 cells carrying HCV subgenomic replicons assessed as inhibition of viral replication at 1.4 uM; assay type: functional, organism-based; conditions: Hepacivirus hominis
# Chain of Histamine H1 receptor (Homo sapiens) (P35367 whole entry): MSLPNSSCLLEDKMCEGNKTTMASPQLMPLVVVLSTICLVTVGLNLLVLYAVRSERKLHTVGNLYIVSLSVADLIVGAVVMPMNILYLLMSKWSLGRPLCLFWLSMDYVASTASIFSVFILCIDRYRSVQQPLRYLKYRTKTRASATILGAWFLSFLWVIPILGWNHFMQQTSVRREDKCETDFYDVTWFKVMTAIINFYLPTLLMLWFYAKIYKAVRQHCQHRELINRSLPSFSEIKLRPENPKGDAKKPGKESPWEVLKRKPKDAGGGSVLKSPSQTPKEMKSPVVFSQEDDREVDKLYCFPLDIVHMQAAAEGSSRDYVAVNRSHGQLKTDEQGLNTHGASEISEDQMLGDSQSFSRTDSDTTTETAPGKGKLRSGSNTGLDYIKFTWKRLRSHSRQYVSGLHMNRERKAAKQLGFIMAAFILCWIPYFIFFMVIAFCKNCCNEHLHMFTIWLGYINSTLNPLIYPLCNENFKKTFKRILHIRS
Compound,EC50 (Hepatitis C virus [1]) [nM],selectivity ratio ([2]; read-out: Ratio CC50/EC50),CC50 at 96 h [3] [nM],other results
CN(C)CCN(C)c1ccc(C#N)c(CN2CCN(c3ccc(C(F)(F)F)cc3)CC2)c1,13,1010,13200,
CN(C)CCN(C)CCN(C)c1ccc(C#N)c(CN2CCN(C(c3ccccc3)c3ccc(Cl)cc3)CC2)c1 (centres undefined),73,87,6340,
CN1CCCN(c2ccc(C#N)c(CN3CCN([C@@H](c4ccccc4)c4ccc(Cl)cc4)CC3)c2)CC1,55,> 364,> 20000,
CC(C)OC(=O)[C@H](C)N[P@](=O)(OC[C@H]1O[C@@H](n2ccc(=O)[nH]c2=O)[C@](C)(F)[C@@H]1O)Oc1ccccc1 [SOFOSBUVIR],82,> 2440,> 200000,CC50 at 96 h [4]: 121000 nM; EC50 (Hepatitis C virus [5]): 129 nM; Activity (Hepatitis C virus [6]): inactive; EC50 (Hepatitis C virus [7]): 180 nM; selectivity ratio ([2]; read-out: Ratio): > 3280; CC50 at 96 h [8]: 171000 nM; Activity (Hepacivirus hominis): inactive; selectivity ratio [9]: 1330
CN(C)CCN(C)c1ccc(C#N)c(CN2CCN(Cc3ccc(F)cc3)CC2)c1,3560,14,52700,
CN(C)CCN(C)c1ccc(C#N)c(CN2CCN(C(c3ccccc3)c3ccccc3)CC2)c1,45,> 444,> 20000,
N#Cc1ccc(NCCCn2ccnc2)cc1CN1CCN(C(c2ccc(Cl)cc2)c2ccc(Cl)cc2)CC1,110,> 182,> 20000,
CN1CCCN(c2ccc(C(F)(F)F)c(CN3CCN(C(c4ccccc4)c4ccc(Cl)cc4)CC3)c2)CC1 (centres undefined),83,15,1290,
CN(C)CCN(C)c1ccc(C#N)c(CN2CCN(c3ccc(Cl)cc3)CC2)c1,175,> 81,21200,Activity [10]: inactive; CC50 at 96 h [4]: 121000 nM; EC50 (Hepatitis C virus [5]): 260 nM; Activity (Hepatitis C virus [6]): inactive; EC50 (Hepatitis C virus [7]): > 1600 nM; selectivity ratio ([2]; read-out: Ratio): > 114; CC50 at 96 h [8]: 18800 nM; CC50 (Huh-7.5): > 20000 nM; Activity (Hepacivirus hominis): Active; selectivity ratio [9]: 72
CN(C)CCN(C)c1ccc(C(F)(F)F)c(CN2CCN(C(c3ccccc3)c3ccc(Cl)cc3)CC2)c1 (centres undefined),271,26,6960,
CN(C)CCN(C)c1ccc(C#N)c(CN2CCN(C(c3ccc(Cl)cc3)c3ccc(Cl)cc3)CC2)c1,3,,3330,
N#Cc1ccc(NCCCn2ccnc2)cc1CN1CCN(C(c2ccccc2)c2ccc(Cl)cc2)CC1 (centres undefined),220,24,5380,
CNCCN(C)CCN(C)c1ccc(C#N)c(CN2CCN(C(c3ccccc3)c3ccc(Cl)cc3)CC2)c1 (centres undefined),95,49,4710,
CN1CCCN(c2ccc(C(F)(F)F)c(CN3CCN(C(c4ccc(F)cc4)c4ccc(F)cc4)CC3)c2)CC1,7,206,1450,
CN(C)CCN(C)c1ccc(C#N)c(CN2CCN(C(c3ccc(F)cc3)c3ccc(F)cc3)CC2)c1,8,976,7810,Activity (Hepacivirus hominis): Active
CN(C)CCN(C)c1ccc(C#N)c(CN2CCN(C(c3ccccc3)c3ccc(Cl)cc3)CC2)c1 (centres undefined),4,1410,5660,Activity [10]: inactive; Activity (Hepatitis C virus [11]): inactive; Activity (Hepatitis C virus [12]): Active; Activity (Hepatitis C virus [6]): Active; Activity (Hepatitis C virus [13]): inactive; Activity (Hepatitis C virus [14]): Active; Activity (Hepatitis C virus [15]): Active; Activity (Hepatitis C virus [16]): inactive; Activity (Hepatitis C virus [17]): inactive; selectivity ratio [9]: 649
CN1CCCN(c2ccc(C#N)c(CN3CCN(c4ccc(Cl)cc4)CC3)c2)CC1,110,87,9590,
